Source: patent US20020015729A1, “COLONIC DELIVERY OF WEAK ACID DRUGS” (priority 1996, published 2002)

Legend:
[1] = Solubility of the drug in the colonic pH range; format: physicochemical; conditions: pH 4.5 to 8.0
[2] = Dissolution of ridogrel and sodium ridogrel from hard gelatin capsules, USP apparatus 2, 100 rpm, 900 mL phosphate buffer; format: physicochemical; conditions: 10 mg in size 2 hard gelatin capsule, pH 5, 6 and 7
Protocol: Into each of three size 2 hard gelatin capsules was weighed 10 mg of ridogrel. Into another three capsules was weighed 10 mg of the sodium ridogrel lyophilisate. The dissolution of ridogrel and sodium ridogrel into 900 mL of phosphate buffer at pH 5, 6 and 7 was tested (USP apparatus 2, 100 rpm).

solubility in the colonic pH range [1]	dissolution rate as a function of pH [2]	dissolution rate as a function of pH ([2]; listed as sodium salt of ridogrel)	Structure (SMILES)
low	–	–	O=C(O)CCCCO/N=C(/c1cccnc1)c1cccc(C(F)(F)F)c1 [ridogrel, (E)-5-[[[3-pyridinyl[3-(trifluoromethyl)phenyl]methylene]amino]oxy]pentanoic acid]
–	largely independent of pH	greatly improved dissolution rate	O=C([O-])CCCCON=C(c1cccnc1)c1cccc(C(F)(F)F)c1.[Na+] [sodium ridogrel]
